Results on ten compounds are retold here after BindingDB's records for doi:10.1016/j.bmcl.2008.08.104 (Genomics Institute of The Novartis Research Foundation, 2008).

For orientation: IC50 means the concentration that gives 50% inhibition.

A short description of assay [1]: Inhibition of TEL fused Lck-mediated proliferation of TEL-Lck transformed mouse BA/F3 cells after 48 hrs by bright-glo luciferase assay.
Assay [2] can be described thus: Inhibition of TEL fused InsR-mediated proliferation of TEL-InsR transformed mouse BA/F3 cells after 48 hrs by bright-glo luciferase assay.
Assay [3] can be described thus: Inhibition of TEL fused Lyn-mediated proliferation of TEL-Lyn transformed mouse BA/F3 cells after 48 hrs by bright-glo luciferase assay.
Assay [4] in a line: Inhibition of TEL fused KDR-mediated proliferation of TEL-KDR transformed mouse BA/F3 cells after 48 hrs by bright-glo luciferase assay.
Assay [5] in a line: Inhibition of TEL fused Src-mediated proliferation of TEL-Src transformed mouse BA/F3 cells after 48 hrs by bright-glo luciferase assay.

As to `Cc1cccc(Cl)c1Nc1nc2ccccc2n1-c1cc(NN2CCOCC2)ncn1` [N-(2-chloro-6-methylphenyl)-1-(6-(morpholinoamino)pyrimidin-4-yl)-1H-benzo[d]imidazol-2-amine], the IC50 in assay [1] is greater than 10000 nM.
As to `Cc1cccc(Cl)c1Nc1nc2ccccc2n1-c1cc(Nc2ccc(CCN3CCOCC3)cn2)ncn1` [N-(2-chloro-6-methylphenyl)-1-(6-(5-(2-morpholinoethyl)pyridin-2-ylamino)pyrimidin-4-yl)-1H-benzo[d]imidazol-2-amine], the IC50 in assay [2] was determined as 5160 nM; in assay [3], 215 nM; in assay [4], 1010 nM; in assay [5], 147 nM.
`Cc1cccc(Cl)c1Nc1nc2ccccc2n1-c1cc(Nc2cc(CN3CCOCC3)ccn2)ncn1` [N-(2-chloro-6-methylphenyl)-1-(6-(4-(morpholinomethyl)pyridin-2-ylamino)pyrimidin-4-yl)-1H-benzo[d]imidazol-2-amine]: in assay [1], the IC50 stood at 17 nM.
In assay [1], `Cc1cc(C)c(Nc2nc3ccccc3n2-c2cc(N)ncn2)c(Br)c1` [1-(6-aminopyrimidin-4-yl)-N-(2-bromo-4,6-dimethylphenyl)-1H-benzo[d]imidazol-2-amine] registered an IC50 of 1170 nM.
For `Cc1nc(Nc2cc(-n3c(Nc4c(C)cccc4Cl)nc4ccccc43)ncn2)cc(N2CCN(CCO)CC2)n1` [2-(4-(6-(6-(2-(2-chloro-6-methylphenylamino)-1H-benzo[d]imidazol-1-yl)pyrimidin-4-ylamino)-2-methylpyrimidin-4-yl)piperazin-1-yl)ethanol], the IC50 in assay [2] turned out to be 2340 nM; in assay [3], 30 nM; in assay [4], 356 nM; in assay [5], 5 nM.
Consider `Cc1cccc(Cl)c1Nc1nc2ccccc2n1-c1cc(N2CCOCC2)ncn1` [N-(2-chloro-6-methylphenyl)-1-(6-morpholinopyrimidin-4-yl)-1H-benzo[d]imidazol-2-amine], for which the IC50 in assay [1] is greater than 10000 nM.
Turning to `Cc1cc(C)c(Nc2nc3ccccc3n2-c2cc(N)ncn2)c(C)c1` [1-(6-aminopyrimidin-4-yl)-N-mesityl-1H-benzo[d]imidazol-2-amine], the IC50 in assay [1] was determined as 583 nM.
In turn, `Cc1cccc(Cl)c1Nc1nc2ccccc2n1-c1cc(Cl)ncn1` [N-(2-chloro-6-methylphenyl)-1-(6-chloropyrimidin-4-yl)-1H-benzo[d]imidazol-2-amine] had an IC50 in assay [1] of 5700 nM. This IC50 is about 9.8-fold higher than that of the compound before.
In assay [1], `CCN(CC)CCCCNc1cc(-n2c(Nc3c(C)cccc3Cl)nc3ccccc32)ncn1` [N-(2-chloro-6-methylphenyl)-1-(6-(4-(diethylamino)butylamino)pyrimidin-4-yl)-1H-benzo[d]imidazol-2-amine] yielded an IC50 of 5040 nM.
In assay [1], `Cc1cccc(Cl)c1Nc1nc2ccccc2n1-c1cc(Nc2ncnc(NCCN3CCOCC3)c2C)ncn1` [N4-(6-(2-(2-chloro-6-methylphenylamino)-1H-benzo[d]imidazol-1-yl)pyrimidin-4-yl)-5-methyl-N6-(2-morpholinoethyl)pyrimidine-4,6-diamine] returned an IC50 of 359 nM.
